Results published in patent US20070166547A1, “Use of a layer consisting of hydrophobic linear, or two-dimensional polycyclic aromatics as a barrier layer or an encapsulation and electric components constructed with a layer of this type and comprising organic polymers” (priority 2003, published 2007).

Tests used:
[1] = Polarographic study of electrochemical reduction (electrochemical activity); assay type: physicochemical; settings: for half-wave potential more positive on reverse stroke than on forward stroke: reverse stroke vs forward stroke; for number of electrons participating in the reduction: calculated with the Geirovsky-Ilkovich equation; for i, mkA (polarographic wave current) / −E1/2, V (half-wave potential vs SCE): 37° C., forward trace, average for the group; for i, mkA (polarographic wave current): 9·10^−4 M
Method: The study was carried out on a general-purpose polarograph PU-1 with a two-coordinate recorder of the “LKD” type using a three-electrode thermostatically controlled polarographic cell and mercury dripping electrode (MDE) with forced separation of the drop and a dropping period of 0.5 second. A platinum wire was used as an auxiliary electrode and a saturated calomel electrode (SCE) was used as a control electrode.
2.0% solutions of sodium chloride having pH 7.0, 7.2, 7.4, 7.6 were used as a background; the pH values of the background solution were corrected by a solution of sodium hydroxide. The polarographic cell was filled with 5.0 ml of the background solution and for 5 minutes was purged with nitrogen for removing the dissolved oxygen. Then 0.5 ml of solution of the studied substance was added to the background solution, and the polarogram was recorded as a polarographic wave. The concentration of the compounds in the polarographic cell was 9·10^−4 M.
The pH was measured on the pH-meter with an accuracy of ±0.05 pH units. The polarographic measurements were carried out at a temperature of 37° C. The recording of polarograms of the investigated materials was effected under conditions of DC current at a scanning rate of the potential 10.0 mV/s with a active scanning stroke from a potential 0 to −0.5 V and sweep retrace from a −0.5 V to 0. The electric-current sensitivity was 5.0 mkA. The scale by the coordinate of the potentials was 50.0 mV/cm. The values of potentials of the half-wave E1/2 of the investigated materials are given with respect to the SCE potential.
The polarogram parameters such as a limiting current ilim and E1/2 were determined by the graphic method. The number of electrons participating in the reaction was calculated on the basis of the analysis of the polarographic wave using the Geirovsky-Ilkovich equation.

[2] = Chronic toxicity, rectal suppositories: indexes of peripheral blood; settings: male rats; for Basophiles / Juveniles: 1 month/2 months (one value given)
Method: The experiments were conducted on inbred rats. The experimental animals were selected in groups by a method of random sampling taking into account the body mass as a determining index; 24 males or 24 females for one preparation from compounds 2, 15, 23, 34, 37 investigated in one dose.
Two doses of preparations used in the experiments: 50 mg/kg and 500 mg/kg. Before the administration, the suppositories were softened by heating in a glass water bath at a temperature of 38-39° C., the soft mass was collected in tuberculin syringe in a volume of 1 ml, a needle with oliva was attached to the syringe, and the preparatory mass was introduced into the rectum of the animal for a depth of 1.5-2.0 cm. The animals of the control group were administered with sterile medical liquid paraffin in a volume corresponding to the volume of the investigated suppository. A complete course of administration of drugs to the animals was two months. A complex of laboratory diagnostic investigations was carried out one month after the beginning of the administration of the preparation to the animal—in a middle of the course (8 animals), two months after ending the course (8 animals) and three months after ending the recovery period of one month (8 animals). The mass of the body of the rats in the first month of administration of the preparation was determined weekly, and then once in two weeks. On the basis of the dynamics of an index of the mass of the animal body, the volume of preparation being administered was corrected taking into account the test dose.

[3] = suppositories 50 mg/kg, 1 month
[4] = suppositories 50 mg/kg, 2 months
[5] = suppositories 500 mg/kg, 1 month
[6] = suppositories 500 mg/kg, 2 months

In the case of O=c1[nH][nH]c(=O)c2nccnc12.[Na] [Compound 26, sodium salt of pyrazine[2,3-d]-6H-pyridazine-5,8-dione], the “half-wave potential more positive on reverse stroke than on forward stroke” value (shortened to “half-wave potential more positive”) [1] is reported as 27.0 mV.
With O=c1[nH]n([C@@H]2O[C@H](CO)[C@@H](O)[C@H]2O)c(=O)c2ncnc(O)c12.[Na] [Compound 33, sodium salt of 4-hydroxy-7-(β-D-ribofuranosile)pyrimido[4,5-d]-6H-pyridazine-5,8-dione] the “number of electrons participating in the reduction” value (shortened to “number … in the reduction”) [1] was 3.5, the “i, mkA (polarographic wave current)” value ([1]; pH 7.0) was 0.30 ± 0.05 mkA and the “−E1/2, V (half-wave potential vs SCE)” value ([1]; pH 7.0) was 0.08 ± 0.02 V. The “i, mkA (polarographic wave current)” value ([1]; pH 7.2) was 0.26 ± 0.02 mkA, the “i, mkA (polarographic wave current)” value ([1]; pH 7.4) was 0.30 ± 0.03 mkA and the “−E1/2, V (half-wave potential vs SCE)” value ([1]; pH 7.4) was 0.085 ± 0.02 V. For the same compound, the “i, mkA (polarographic wave current)” value ([1]; pH 7.6) was 0.30 ± 0.02 mkA, the “−E1/2, V (half-wave potential vs SCE)” value ([1]; pH 7.6) was 0.09 ± 0.02 V and the “half-wave potential more positive” value [1] was 27.0 mV.
With O=C([O-])c1ncnc2c(=O)n([C@@H]3O[C@H](CO)[C@@H](O)[C@H]3O)[nH]c(=O)c12.[Na+] [Compound 34, sodium salt of 4-carboxy-7-(β-D-ribofuranosile)pyrimido[4,5-D]-6H-pyridazine-5,8-dione] the “Average volume of erythrocytes” value [2, 3] was 81.6 ± 1.9 Mkm^3, the “Coagulation, time” value [2, 3] was 148 ± 16 s and the Eosinophiles [2, 3] was 3.5 ± 1.0%. It also gave an Erythrocytes [2, 3] of 5.6 ± 0.1 mln/mm^3, a Haematocrite [2, 3] of 46.9 ± 1.1% and a Hemoglobin [2, 3] of 10.6 ± 0.1 mmol/L. The Leukocyte [2, 3] was 15.9 ± 1.3 thousand/mm^3, the REE [2, 3] was 1.8 ± 0.5 mm/h and the Reticulocytes [2, 3] was 2.7 ± 0.1%. It also gave a Stab neutrophil [2, 3] of 1.0 ± 0.4%, a Thrombocytes [2, 3] of 670 ± 23 and a Basophiles ([2]; suppositories 50 mg/kg) of 0%. The Juveniles ([2]; suppositories 50 mg/kg) was 0%, the “Average volume of erythrocytes” value [2, 4] was 76.7 ± 1.9 Mkm^3 and the “Coagulation, time” value [2, 4] was 321 ± 10 s. It also gave an Eosinophiles [2, 4] of 4.1 ± 0.4%, an Erythrocytes [2, 4] of 6.1 ± 0.2 mln/mm^3 and a Haematocrite [2, 4] of 47.5 ± 1.2%. For the same compound, the Hemoglobin [2, 4] was 11.1 ± 0.2 mmol/L, the Leukocyte [2, 4] was 17.8 ± 1.4 thousand/mm^3 and the REE [2, 4] was 1.7 ± 0.3 mm/h. It also gave a Reticulocytes [2, 4] of 2.9 ± 0.2%, a Stab neutrophil [2, 4] of 1.8 ± 0.5% and a Thrombocytes [2, 4] of 610 ± 15. The “Average volume of erythrocytes” value [2, 5] was 84.1 ± 1.3 Mkm^3, the Eosinophiles [2, 5] was 3.0 ± 0.9% and the Erythrocytes [2, 5] was 5.6 ± 0.2 mln/mm^3. The Haematocrite [2, 5] was 48.1 ± 1.5%, the Hemoglobin [2, 5] was 10.6 ± 0.3 mmol/L and the Leukocyte [2, 5] was 16.9 ± 1.0 thousand/mm^3. The REE [2, 5] was 2.0 ± 0.4 mm/h, the Reticulocytes [2, 5] was 3.2 ± 0.2% and the Stab neutrophil [2, 5] was 0.9 ± 0.2%. The Thrombocytes [2, 5] was 682 ± 24, the Basophiles ([2]; suppositories 500 mg/kg) was 0% and the Juveniles ([2]; suppositories 500 mg/kg) was 0%. For the same compound, the “Average volume of erythrocytes” value [2, 6] was 83.8 ± 1.5 Mkm^3, the “Coagulation, time” value [2, 6] was 312 ± 9 s and the Eosinophiles [2, 6] was 3.9 ± 1.4%. The Erythrocytes [2, 6] was 6.6 ± 0.1 mln/mm^3, the Haematocrite [2, 6] was 53.1 ± 1.6% and the Hemoglobin [2, 6] was 12.4 ± 0.4 mmol/L. It also gave a Leukocyte [2, 6] of 22.1 ± 1.1 thousand/mm^3, an REE [2, 6] of 1.8 ± 0.2 mm/h and a Reticulocytes [2, 6] of 3.5 ± 0.3%. It also gave a Stab neutrophil [2, 6] of 1.4 ± 0.3% and a Thrombocytes [2, 6] of 631 ± 26.
With COP(=O)(OC)C(C)(C)CC(C)=O [dimephosphon, dimethyl ester of 1,1-dimethyl-3-oxybuthyl of phosphonic acid, reference compound] the “number … in the reduction” value [1] was 1.6, the “i, mkA (polarographic wave current)” value ([1]; pH 7.0) was 0.10 ± 0.03 mkA and the “−E1/2, V (half-wave potential vs SCE)” value ([1]; pH 7.0) was 0.175 ± 0.01 V. For the same compound, the “i, mkA (polarographic wave current)” value ([1]; pH 7.2) was 0.12 ± 0.03 mkA, the “−E1/2, V (half-wave potential vs SCE)” value ([1]; pH 7.2) was 0.17 ± 0.02 V and the “i, mkA (polarographic wave current)” value ([1]; pH 7.4) was 0.11 ± 0.02 mkA. For the same compound, the “−E1/2, V (half-wave potential vs SCE)” value ([1]; pH 7.4) was 0.18 ± 0.01 V, the “i, mkA (polarographic wave current)” value ([1]; pH 7.6) was 0.11 ± 0.02 mkA and the “−E1/2, V (half-wave potential vs SCE)” value ([1]; pH 7.6) was 0.18 ± 0.01 V. For the same compound, the “half-wave potential more positive” value [1] was 50.0 mV.
In the case of “disodium salt of 3-Kap ? OKC ? -7-(β-D-ribofuranosile)pyrido[2,3-d]-6H-pyridazine-5,8-dione [Compound 5]”, the “number … in the reduction” value [1] is reported as 3.72, the “i, mkA (polarographic wave current)” value ([1]; pH 7.0) is reported as 0.26 ± 0.04 mkA and the “−E1/2, V (half-wave potential vs SCE)” value ([1]; pH 7.0) is reported as 0.11 ± 0.02 V. For the same compound, the “i, mkA (polarographic wave current)” value ([1]; pH 7.2) was 0.31 ± 0.02 mkA, the “−E1/2, V (half-wave potential vs SCE)” value ([1]; pH 7.2) was 0.11 ± 0.03 V and the “i, mkA (polarographic wave current)” value ([1]; pH 7.4) was 0.27 ± 0.03 mkA. For the same compound, the “−E1/2, V (half-wave potential vs SCE)” value ([1]; pH 7.4) was 0.105 ± 0.01 V, the “i, mkA (polarographic wave current)” value ([1]; pH 7.6) was 0.30 ± 0.01 mkA and the “−E1/2, V (half-wave potential vs SCE)” value ([1]; pH 7.6) was 0.105 ± 0.02 V. The “half-wave potential more positive” value [1] was 25.0 mV.
In the case of “potassium salt of 3-bromine-pyrazine[2,3-Cl]-6H-pyridazine-5,8-dione [Compound 27]”, the “number … in the reduction” value [1] is reported as 3.72, the “i, mkA (polarographic wave current)” value ([1]; pH 7.0) is reported as 0.32 ± 0.03 mkA and the “−E1/2, V (half-wave potential vs SCE)” value ([1]; pH 7.0) is reported as 0.16 ± 0.02 V. The “i, mkA (polarographic wave current)” value ([1]; pH 7.2) was 0.33 ± 0.04 mkA, the “−E1/2, V (half-wave potential vs SCE)” value ([1]; pH 7.2) was 0.19 ± 0.02 V and the “i, mkA (polarographic wave current)” value ([1]; pH 7.4) was 0.34 ± 0.03 mkA. The “−E1/2, V (half-wave potential vs SCE)” value ([1]; pH 7.4) was 0.175 ± 0.01 V, the “i, mkA (polarographic wave current)” value ([1]; pH 7.6) was 0.34 ± 0.02 mkA and the “−E1/2, V (half-wave potential vs SCE)” value ([1]; pH 7.6) was 0.16 ± 0.015 V. The “half-wave potential more positive” value [1] was 20.0 mV.
With “sodium salt of 7-(β-O-ribofuranosile)pyrido[2,3-1]-6H-pyridazine-5,8-dione sodium salt [Compound 1]” the “number … in the reduction” value [1] was 3.72, the “i, mkA (polarographic wave current)” value ([1]; pH 7.0) was 0.26 ± 0.04 mkA and the “−E1/2, V (half-wave potential vs SCE)” value ([1]; pH 7.0) was 0.11 ± 0.02 V. The “i, mkA (polarographic wave current)” value ([1]; pH 7.2) was 0.31 ± 0.02 mkA, the “−E1/2, V (half-wave potential vs SCE)” value ([1]; pH 7.2) was 0.11 ± 0.03 V and the “i, mkA (polarographic wave current)” value ([1]; pH 7.4) was 0.27 ± 0.03 mkA. The “−E1/2, V (half-wave potential vs SCE)” value ([1]; pH 7.4) was 0.105 ± 0.01 V, the “i, mkA (polarographic wave current)” value ([1]; pH 7.6) was 0.30 ± 0.01 mkA and the “−E1/2, V (half-wave potential vs SCE)” value ([1]; pH 7.6) was 0.105 ± 0.02 V. The “half-wave potential more positive” value [1] was 25.0 mV.
